Experiments:
[1] = system: parental CHO cell line without any transfected receptors; assay: ERK1/2‐phosphorylation, parent CHO cells without transfected receptors; format: cell-based, Chinese hamster; conditions: CHO cells without transfected receptors
human α1B‐adrenoceptor [2] = target: T1, human α1B‐adrenoceptor (Homo sapiens, UniProt P35368); assay: ^3H‐cAMP accumulation in the presence of 10 μM forskolin, CHO‐α1B cells; format: cell-based; conditions: CHO‐α1B cells; for cAMP accumulation (in presence of forskolin) Fold increase: fold increase of the forskolin response; for EC50: in presence of forskolin, read-out: cAMP accumulation (in presence of forskolin) Log EC50 (converted)
T1 construct: expressed in transfected cells; host or cells: CHO-K1
T1 sequence (P35368 1-520): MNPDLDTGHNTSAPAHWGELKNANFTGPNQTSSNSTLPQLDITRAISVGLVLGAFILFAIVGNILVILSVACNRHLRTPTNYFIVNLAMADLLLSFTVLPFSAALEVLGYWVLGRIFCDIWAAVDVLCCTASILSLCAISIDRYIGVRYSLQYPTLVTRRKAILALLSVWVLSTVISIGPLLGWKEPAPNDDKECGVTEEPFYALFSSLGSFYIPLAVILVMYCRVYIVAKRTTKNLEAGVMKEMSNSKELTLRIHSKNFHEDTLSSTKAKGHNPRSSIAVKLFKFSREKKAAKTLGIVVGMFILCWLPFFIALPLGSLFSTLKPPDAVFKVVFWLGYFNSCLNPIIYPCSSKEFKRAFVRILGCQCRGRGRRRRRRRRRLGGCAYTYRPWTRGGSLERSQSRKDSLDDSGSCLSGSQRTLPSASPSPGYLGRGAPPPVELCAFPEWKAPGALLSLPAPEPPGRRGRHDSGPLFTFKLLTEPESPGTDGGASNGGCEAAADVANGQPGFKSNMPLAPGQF

[3] = target: T2, human α1D‐adrenoceptor (full length) (Homo sapiens, UniProt P25100); assay: Intracellular free calcium mobilization, CHO‐α1D cells; format: cell-based; conditions: CHO‐α1D cells; for Log efficacy ratio KD /EC50: intrinsic efficacy ratio, binding KD / calcium EC50; for EC50: log values given negative, read-out: Intracellular calcium release Log EC50 (converted); for Intracellular calcium release % ionomycin: maximal response as % of 10 µM ionomycin
T2 construct: human α1D‐adrenoceptor (full length) were used; expressed in transfected cells; host or cells: CHO-K1
T2 sequence (P25100 1-572): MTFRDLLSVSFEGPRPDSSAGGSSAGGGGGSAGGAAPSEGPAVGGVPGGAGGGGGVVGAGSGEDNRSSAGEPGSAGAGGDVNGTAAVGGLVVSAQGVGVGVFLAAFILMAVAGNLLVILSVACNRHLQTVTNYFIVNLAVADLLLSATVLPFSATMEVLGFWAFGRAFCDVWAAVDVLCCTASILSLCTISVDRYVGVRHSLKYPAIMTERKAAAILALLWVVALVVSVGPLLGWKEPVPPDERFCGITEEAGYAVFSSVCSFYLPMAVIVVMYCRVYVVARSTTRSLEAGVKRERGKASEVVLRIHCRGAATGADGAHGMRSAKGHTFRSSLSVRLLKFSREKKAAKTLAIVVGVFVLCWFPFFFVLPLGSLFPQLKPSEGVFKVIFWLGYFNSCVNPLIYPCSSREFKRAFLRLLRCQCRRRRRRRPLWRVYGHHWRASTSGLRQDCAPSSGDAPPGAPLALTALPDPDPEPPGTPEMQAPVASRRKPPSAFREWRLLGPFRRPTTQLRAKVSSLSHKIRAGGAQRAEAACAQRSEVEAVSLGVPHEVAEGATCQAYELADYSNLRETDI

[4] = system: parental CHO cell line without any transfected receptors; assay: Forskolin‐stimulated cAMP accumulation, parent CHO cells without transfected receptors; format: cell-based, Chinese hamster; conditions: CHO cells without transfected receptors; in presence of forskolin
[5] = target: T2, human α1D‐adrenoceptor (full length); assay: ERK1/2‐phosphorylation (Surefire Alphascreen), CHO‐α1D cells; format: cell-based; conditions: CHO‐α1D cells; for EC50: log values given negative, read-out: ERK1/2‐phosphorylation Log EC50 (converted); for ERK1/2‐phosphorylation % PDBu: maximal response as % of PDBu
human α1B‐adrenoceptor [6] = target: T1, human α1B‐adrenoceptor; assay: Intracellular free calcium mobilization, CHO‐α1B cells; format: cell-based
[7] = target: T2, human α1D‐adrenoceptor (full length); assay: ^3H‐cAMP accumulation in the presence of 10 μM forskolin, CHO‐α1D cells; format: cell-based; conditions: CHO‐α1D cells; for cAMP (in presence of forskolin) Fold increase: fold increase of the forskolin response; for EC50: in presence of forskolin, log values given negative
human α1B‐adrenoceptor [8] = target: T1, human α1B‐adrenoceptor; assay: ^3H‐cAMP accumulation, CHO‐α1B cells; format: cell-based; conditions: CHO‐α1B cells
human α1A‐adrenoceptor [9] = target: T3, human α1A‐adrenoceptor (Homo sapiens, UniProt P35348); assay: ERK1/2‐phosphorylation (Surefire Alphascreen), CHO‐α1A cells; format: cell-based; conditions: CHO‐α1A cells, ^a bi‐phasic: initial stimulatory part; for EC50: 2–4 min, ^b also active in parent CHO cells, read-out: ERK1/2‐phosphorylation Log EC50 (converted); for ERK1/2‐phosphorylation % PDBu: % of 10 µM PDBu
T3 construct: expressed in transfected cells; host or cells: CHO-K1
T3 sequence (P35348 1-466): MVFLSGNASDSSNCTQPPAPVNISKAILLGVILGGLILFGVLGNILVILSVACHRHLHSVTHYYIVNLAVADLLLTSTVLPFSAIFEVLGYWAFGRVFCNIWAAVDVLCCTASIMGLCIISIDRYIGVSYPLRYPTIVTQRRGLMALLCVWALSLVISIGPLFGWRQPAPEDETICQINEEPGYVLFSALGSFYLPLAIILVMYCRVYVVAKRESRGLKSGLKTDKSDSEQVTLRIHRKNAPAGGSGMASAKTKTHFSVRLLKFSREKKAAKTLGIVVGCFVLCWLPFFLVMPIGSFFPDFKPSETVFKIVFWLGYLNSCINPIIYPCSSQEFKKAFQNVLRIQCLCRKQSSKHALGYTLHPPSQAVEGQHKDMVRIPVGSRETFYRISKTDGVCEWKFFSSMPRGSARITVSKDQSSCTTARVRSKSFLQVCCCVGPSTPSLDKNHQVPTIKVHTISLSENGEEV

human α1B‐adrenoceptor [10] = target: T1, human α1B‐adrenoceptor; assay: ^3H‐prazosin whole‐cell radioligand binding, CHO‐α1B cells
human α1B‐adrenoceptor [11] = target: T1, human α1B‐adrenoceptor; assay: ERK1/2‐phosphorylation (Surefire Alphascreen), CHO‐α1B cells; format: cell-based
[12] = target: T2, human α1D‐adrenoceptor (full length); assay: ^3H‐prazosin whole‐cell radioligand binding, CHO‐α1D cells; conditions: for Kd: CHO‐α1D cells
human α1A‐adrenoceptor [13] = target: T3, human α1A‐adrenoceptor; assay: Intracellular free calcium mobilization, CHO‐α1A cells; format: cell-based; conditions: CHO‐α1A cells; for Log efficacy ratio KD /EC50: binding KD and calcium EC50; for EC50: given as log EC50 (negative), read-out: Intracellular calcium release Log EC50 (converted); for Intracellular calcium release % ionomycin: maximal response as % of 10 µM ionomycin
[14] = 3H‐prazosin binding Log KD, whole‐cell binding (from Table 1), log values given negative
[15] = given as log KD (negative), mean ± SEM, 'early plateau' = specific binding not fully inhibited

| cAMP accumulation (in presence of forskolin) Fold increase (human α1B‐adrenoceptor [2]) [fold] | EC50 (human α1B‐adrenoceptor [2]) [µM] | Log efficacy ratio KD /EC50 [3] | EC50 [3] [µM] | Intracellular calcium release % ionomycin [3] [%] | EC50 [5] [µM] | ERK1/2‐phosphorylation % PDBu [5] [%] | cAMP (in presence of forskolin) Fold increase [7] | EC50 [7] [µM] | EC50 (human α1A‐adrenoceptor [9]) [µM] | ERK1/2‐phosphorylation % PDBu (human α1A‐adrenoceptor [9]) [%] | Kd [12, 14] [µM] | Kd [12, 15] [µM] | Log efficacy ratio KD /EC50 (human α1A‐adrenoceptor [13]) | EC50 (human α1A‐adrenoceptor [13]) [µM] | Intracellular calcium release % ionomycin (human α1A‐adrenoceptor [13]) [%] | Structure (SMILES) | cAMP accumulation (in presence of forskolin) Log EC50 [4] | further results |
| --- | --- | --- | --- | --- | --- | --- | --- | --- | --- | --- | --- | --- | --- | --- | --- | --- | --- | --- |
| 1.24 ± 0.04 | 2 | 2.26 | 0.024 | 10.6 ± 1.8 | 0.891 | 26.2 ± 7.5 | 1.16 ± 0.06 | 0.309 | 0.0437 | 85.5 ± 4.3 | 4.37 | 4.37 | 2.04 | 0.00417 | 31.3 ± 3.6 | CC(CCc1ccc(O)cc1)NCCc1ccc(O)c(O)c1 (stereo not shown) [Dobutamine] | No response | ERK1/2-phosphorylation % PDBu at 10μM ([1]; response at 10μM only, EC50 not obtainable, % of PDBu (10μM)): 16.4 ± 5.9%; Agonist (calcium) response in CHO‐α1B cells (human α1B‐adrenoceptor [6]): did not stimulate any measurable; Intracellular calcium release % Ionomycin at 100 µM (human α1B‐adrenoceptor [6]; CHO‐α1B cells, response at 100 µM ligand (no EC50 given), % of ionomycin response): 3.0 ± 1.1%; cAMP accumulation Log EC50 (human α1B‐adrenoceptor [8]): No response; cAMP accumulation % forskolin (human α1B‐adrenoceptor [8]; % forskolin maximum response): No response; Kd (human α1B‐adrenoceptor [10]; Log KD α1B, ^3H‐prazosin whole cell binding, CHO‐α1B cells, given as log KD (negative), mean ± SEM): 3.63 µM; Kd (human α1B‐adrenoceptor [10]; Log KD, ^3H‐prazosin binding, CHO‐α1B cells, whole‐cell binding (from Table 1), given as log KD (negative numbers)): 3.63 µM; Affinity selectivity ratio α1B vs α1D (human α1B‐adrenoceptor [10]; left sub‐column: higher affinity for α1B than α1D): 1.2 fold; ERK1/2‐phosphorylation response in CHO‐α1B cells (human α1B‐adrenoceptor [11]): did not stimulate any measurable; ERK1/2‐phosphorylation % PDBu at 100 µM (human α1B‐adrenoceptor [11]; CHO‐α1B cells, response at 100 µM ligand (no EC50 given)): 56.3 ± 11.3% |
| 2.58 ± 0.07 | 1.48 | 1.87 | 0.759 | 23.1 ± 3.8 | 2.69 | 20.5 ± 3.0 | 1.19 ± 0.04 | 0.324 | 0.0977 | 83.9 ± 4.1 | 56.2 | 56.2 | 3.14 | 0.0617 | 66.9 ± 3.2 | C[C@H](N)[C@H](O)c1cccc(O)c1 [Metaraminol] | No response | ERK1/2-phosphorylation % PDBu ([1]; maximal response as % of PDBu (10μM) response, mean ± s.e.m.): No response; ERK1/2-phosphorylation Log EC50 ([1]; mean ± s.e.m.): No response; EC50 (human α1B‐adrenoceptor [6]; CHO‐α1B cells, given as log EC50 (negative numbers), read-out: Intracellular calcium release Log EC50 (converted)): 0.112 µM; Log efficacy ratio KD /EC50 (human α1B‐adrenoceptor [6]; CHO‐α1B cells, intrinsic efficacy ratio, KD from binding / EC50 calcium, log): >3.95; Intracellular calcium release % ionomycin (human α1B‐adrenoceptor [6]; CHO‐α1B cells, maximal response as % of 10 µM ionomycin response): 60.1 ± 3.1%; cAMP accumulation % forskolin at 100 µM (human α1B‐adrenoceptor [8]; response at 100 µM ligand (no EC50 given)): 42.0 ± 5.1%; IC50 (human α1B‐adrenoceptor [10]; CHO‐α1B cells, printed as IC50> log value): > 1000 µM; EC50 (human α1B‐adrenoceptor [11]; CHO‐α1B cells, for bi‐phasic responses the initial stimulatory part, read-out: ERK1/2‐phosphorylation Log EC50 (converted)): 1.45 µM; ERK1/2‐phosphorylation % PDBu (human α1B‐adrenoceptor [11]; CHO‐α1B cells, maximal response as % PDBu response, for bi‐phasic responses the initial stimulatory part): 92.2 ± 3.9%; Affinity selectivity ratio α1A vs α1D ([12]; higher affinity for α1D than α1A): 1.5 fold; Affinity selectivity ratio α1B vs α1D ([12]; higher affinity for α1D than α1B): >17.8 fold |

Source: publication PMC8343220, “The selectivity of α‐adrenoceptor agonists for the human α1A, α1B, and α1D‐adrenoceptors” (Pharmacology Research & Perspectives, 2021)
